Converted amounts (≈) assume the structure as drawn. “And” between values parts separate entries of the source, which are not always exact repeats. Equal entries are not always repeated. Marks after values point to notes of the source that are not given here.
Tests used:
Solubility in water = format: physicochemical; details: distilled water, thermodynamic from solid, room temperature
Description: As discussed in the previous section, all tested compounds are dominantly unionized in the whole range of physiologically important pH values (2 < pH ≤ 7.4). Therefore, water was used for the determination of solubility. […] According to USP34, all tested compounds can be defined as practically insoluble since their solubilities are ≤100 mg/L [54].
Solubility of tested compounds was investigated at room temperature. Compounds were weighed on a scale (5 mg each) and transferred to flasks. In a stepwise procedure, increasing volumes of distilled water were added, and after each addition of an amount of water, the mixture was placed on an ultrasound bath for 5 min and visually inspected for undissolved parts of the sample. When no […] could be observed, the mixture was transferred into a glass cylinder, and opalescence was compared with water. If the mixture was not more opalescent than the solvent, the solvation was considered to be achieved. Solubility of a compound is defined according to the amount of solvent required to dissolve 1 mg.

[1] = PAMPA test (hexadecane membrane), passive gastrointestinal absorption; format: in vitro ADME; details: for Papp at 5 h, 0.05 mM / –logPe: donor pH 5.5, acceptor pH 7.4, 5 h, room temperature; for Papp at 5 h, 0.05 mM: read-out: Pe (effective passive permeability coefficient)
Description: The PAMPA test uses a 96-well plate coated with an impregnated filter material, forming an artificial membrane that separates donor and acceptor compartments. Egg lecithin in dodecane is commonly used to simulate membrane lipids, while hexadecane is effective for mimicking gastrointestinal membranes. […] Therefore, hexadecane dissolved in hexane was chosen in this study.
The phosphate buffer solution was prepared by dissolving 0.5292 g of NaH2PO4 × H2O and 0.0234 g of Na2HPO4 in purified water (200 mL). The phosphate buffer was divided into two portions, and the pH was adjusted to pH 5.5 and pH 7.4 using o-phosphoric acid. The donor solutions were prepared by diluting the stock solutions (5 mM DMSO solutions) with the buffer pH 5.5 to obtain the final concentration of 0.05 mM (the DMSO concentration in the donor solutions was 1%), while the acceptor solution was prepared as a 1% DMSO solution in the buffer pH 7.4. The use of DMSO as a cosolvent in PAMPA is necessary in cases of low-soluble compounds. It is usually used in concentrations up to 5% [25, 55, 56, 57].
The PAMPA test was performed according to the literature procedure using a 96-well microtiter polycarbonate filter plate (Merck Millipore, Carrigtwohill, Ireland) that was impregnated with 15 µL of a hexadecane/hexane (5:95, v/v) solution [52]. Donor solutions (300 µL per well) were transferred into each well of the donor plate. Acceptor solution was transferred into each well (300 µL per well) of the acceptor plate (MSSACCEPTOR, Millipore, Burlington, MA, USA) and covered by the donor plate to create a PAMPA sandwich. The system was incubated at room temperature for 5 h at a vibratory mixer. After incubation, the PAMPA sandwich was dissociated, and concentrations of all tested compounds in each well, as well as in the starting solutions, were determined using the HPLC method (Section 3.3.1).
The concentrations of tested compounds in the starting solutions, as well as in the donor and acceptor sections after incubation, were determined by the HPLC method on the Dionex Ultimate 3000 (Thermo Fisher Scientific, Waltham, MA, USA) equipped with a quaternary pump, autosampler, and DAD detector using a ZORBAX Eclipse XDB-C18 4.6 × 150 mm, 5 µm column (Agilent Technologies, Santa Clara, CA, USA).
R represents the retention, which is defined as the fraction of the tested compound retained in the PAMPA membrane (filters and plate materials), CD(t) is the concentration of a tested compound in a donor compartment after incubation time t, CA(t) is the concentration of a tested compound in an acceptor compartment after incubation time t, while CD(0) represents the concentration of a tested compound in a donor compartment at the beginning of the incubation (starting solution).

[2] = Stability in acidic medium (0.01 M HCl); format: physicochemical; details: for The Decrease in Peak Area (%): 0.01 M HCl pH 2, 2 h; for Peak Area, t: 0.01 M HCl pH 2, after 2 h; for Peak Area, t0: 0.01 M HCl pH 2, start of incubation
Description: In order to test gastric stability, compounds were incubated in 0.01 M HCl (pH = 2) for 2 h. Moreover, 0.01 M HCl was chosen because this acid is naturally present in the stomach and simulates its pH (between 1 and 3), while incubation time (2 h) corresponds to the average retention of drugs in the stomach after an oral administration. Peak areas at the beginning (t0) and at the end of the incubation (t) and the decrease in peak areas between these two time points are presented in Table 5.
Acidic medium was simulated by a 0.01 M HCl solution, which was prepared by diluting 0.1 M HCl with distilled water. Stock solutions of tested compounds (5 mM DMSO solutions) were diluted with the medium to obtain a concentration of 0.05 mM. Tested compounds were investigated immediately after preparation (t0) and after a defined incubation time (t) by injecting these solutions into the HPLC chromatograph in duplicates (the HPLC method used was the same as described in Section 3.3.1). The difference between peak areas at t0 and t time points and the eventual occurrence of additional chromatographic peaks after incubation were analyzed.

[3] = target: T1, human serum albumin (HSA) (Homo sapiens, UniProt P02768); assay: Differential pulse voltammetry (DPV), interaction with HSA; format: binding; details: compound 0.05 mmol/L, PBS pH 7.4, HSA 0.05–10 μmol/L; for fraction unbound at 0.05 mmol/L: human, human serum albumin solution in PBS, read-out: % Bound Drug (converted)
T1 construct: purchased Sigma-Aldrich
Description: The electrochemical oxidation of the tested compounds at a concentration of 0.05 mmol/L in PBS buffer pH 7.4 was investigated by differential pulse voltammetry (DPV). […] For all tested compounds, a preliminary study of the interaction with HSA was performed at a concentration of 0.05 mmol/L and different HSA concentrations (0.05–10 μmol/L) using DPV. […] It has been reported that the shift in the potential of an electroactive ligand is a suitable criterion to determine the mode of the macromolecule–ligand interaction. In this context, a positive shift in potential is an indication of hydrophobic interaction of investigated compounds with HSA [34]. The decrease in peak current could be due to the formation of a non-electroactive supramolecular compound by the drug–protein interaction, which reduces the concentration of free drug.
The voltammetric measurements were carried out with the µAutolab analyzer (EcoChemie, Utrecht, The Netherlands). A three-electrode system with a GCE working electrode, an Ag/AgCl reference electrode, and a Pt-auxiliary electrode was used. Before each experiment, the GCE was manually polished with an aqueous slurry of Al2O3 powder (particle size of 0.05 μm) on a smooth polishing pad, sonicated in deionized water, and then treated in absolute ethanol. Phosphate buffer saline (PBS) pH 7.4 was used as the supporting electrolyte. The experiments were carried out with deaerated PBS buffer. A stock solution of HSA in PBS at a concentration of 0.1 mmol/L was used. […] The interaction between tested compounds and HSA was examined in PBS solution, using solutions of tested compounds in a concentration of 0.05 mmol/L and HSA solution with a concentration in the range of 0.05–10 μmol/L.
The percentage of free compound (Equation (4)) was calculated from the ratio of the current intensity (IINT) for a given compound concentration (0.05 mmol/L) in the presence of albumin to the signal obtained at the same compound concentration only in the presence of the supporting electrolyte (PBS buffer) (IC).

T1 sequence (P02768 25-609): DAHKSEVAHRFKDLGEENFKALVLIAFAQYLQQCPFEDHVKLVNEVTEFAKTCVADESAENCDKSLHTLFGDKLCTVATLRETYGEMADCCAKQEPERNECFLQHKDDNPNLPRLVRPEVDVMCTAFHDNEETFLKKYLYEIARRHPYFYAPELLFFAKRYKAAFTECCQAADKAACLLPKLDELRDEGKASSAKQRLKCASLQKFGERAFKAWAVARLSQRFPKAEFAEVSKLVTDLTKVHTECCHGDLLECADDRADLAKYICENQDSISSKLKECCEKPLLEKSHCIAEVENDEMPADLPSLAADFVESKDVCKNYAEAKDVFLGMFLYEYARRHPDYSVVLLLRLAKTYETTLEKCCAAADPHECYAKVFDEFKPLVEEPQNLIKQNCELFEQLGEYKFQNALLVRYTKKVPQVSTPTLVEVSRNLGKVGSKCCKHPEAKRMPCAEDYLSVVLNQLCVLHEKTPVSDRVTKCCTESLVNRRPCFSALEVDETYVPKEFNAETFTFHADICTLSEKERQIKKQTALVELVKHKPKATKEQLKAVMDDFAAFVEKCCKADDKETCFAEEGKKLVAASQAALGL

solubility at 5 min (Solubility in water)	Membrane retention (R) ([1]; PAMPA)	Papp at 5 h, 0.05 mM ([1]; PAMPA)	–logPe [1]	The Decrease in Peak Area (%) [2]	Peak Area, t [2]	Peak Area, t0 [2]	ΔE, DPV peak potential shift after interaction with HSA [3]	fraction unbound at 0.05 mmol/L [3]	Compound
19.4 µg/mL (≈ 82.2 µM)	24%	146 ×10⁻⁶ cm/s	3.84 ± 0.05	1.63 (p = 0.073) %	10.83 ± 0.03	11.01 ± 0.02	7 mV	0.292	CC(=O)N(O)C(C)c1ccc(CC(C)C)cc1 (stereo not drawn) [Compound 11]
11.8 µg/mL (≈ 45.4 µM)	–	157 ×10⁻⁶ cm/s	3.81 and 3.81 ± 0.04	0.24 (p = 0.4399) %	48.54 ± 0.39	48.66 ± 0.49	13 mV	0.296	COc1ccc2cc(C(C)N(O)C(C)=O)ccc2c1 (stereo not drawn) [Compound 12]
1.5 µg/mL (≈ 3.87 µM)	–	42.9 ×10⁻⁶ cm/s	–	0.07 (p = 0.2839) ^a %	8.27 ± 0.00	8.28 ± 0.01	34 mV	0.267	COc1ccc2c(c1)c(CNC(=O)NO)c(C)n2C(=O)c1ccc(Cl)cc1 [Compound 1]
14.3 µg/mL (≈ 52.1 µM)	–	17.6 ×10⁻⁶ cm/s	–	0.34 (p = 0.4501) %	6.55 ± 0.07	6.57 ± 0.12	30 mV	0.198	CC(NC(=O)NO)c1ccc(-c2ccccc2)c(F)c1 (stereo not drawn) [Compound 2]

Compound	solubility at 5 min (Solubility in water)	Membrane retention (R) ([1]; PAMPA)	Papp at 5 h, 0.05 mM ([1]; PAMPA)	–logPe [1]	The Decrease in Peak Area (%) [2]	Peak Area, t [2]	Peak Area, t0 [2]	ΔE, DPV peak potential shift after interaction with HSA [3]	fraction unbound at 0.05 mmol/L [3]
O=C(NO)NCc1ccccc1Nc1c(Cl)cccc1Cl [Compound 3]	5.45 µg/mL (≈ 16.7 µM)	–	77.3 ×10⁻⁶ cm/s	4.11 ± 0.02	2.33% and 2.33 (p = 0.0159) %	6.27 ± 0.10	6.42 ± 0.11	29 mV	0.198

— article PMC11510591, “In Vitro Evaluation of Pharmacokinetic Properties of Selected Dual COX-2 and 5-LOX Inhibitors” (Pharmaceuticals, 2024)
